Results on 1 molecule are retold here after ChEMBL document CHEMBL4419175, “Compositions for treatment, diagnosis and prognosis of diseases” (2016).

Activity calls are given as the source filed them. The calls are words filed in the database; no cut-off is given here.

The test system of experiment [1] is PC-3. Kind of experiment: Inhibition of PIP5K1alpha protein expression in human PC3 cells assessed as reduction in FAK phosphorylation incubated for 48 hrs by immunoblot analysis relative to control. Format: functional, cell-based. For orientation: A western blot detects proteins with antibodies after separation by electrophoresis.
Experiment [2] relates to MDA-MB-231. As to the kind of experiment: Inhibition of cell proliferation in human MDA-MB-231 cells assessed as reduction in viable cell count at 10 to 100 uM incubated for 48 hrs. Format: functional, cell-based.
Experiment [3] relates to PC-3. As to the kind of experiment: Induction of apoptosis in human PC3 cells assessed as necrotic cells at 50 uM incubated for 48 hrs by Annexin-/7-AAD staining based FACS analysis (reference value: 0.32%). The class given is functional. (Flow cytometry measures light scatter and fluorescence of single cells or particles in a stream.)
The subject of experiment [4] is LNCaP. As to the kind of experiment: Inhibition of PSA protein expression in human LNCAP cells at 20 uM incubated for 48 hrs by immunoblot analysis. Format: functional, cell-based.
Experiment [5] addresses T1, MAP/microtubule affinity-regulating kinase 4 (Homo sapiens) (UniProt Q96L34).
T1 sequence (whole entry): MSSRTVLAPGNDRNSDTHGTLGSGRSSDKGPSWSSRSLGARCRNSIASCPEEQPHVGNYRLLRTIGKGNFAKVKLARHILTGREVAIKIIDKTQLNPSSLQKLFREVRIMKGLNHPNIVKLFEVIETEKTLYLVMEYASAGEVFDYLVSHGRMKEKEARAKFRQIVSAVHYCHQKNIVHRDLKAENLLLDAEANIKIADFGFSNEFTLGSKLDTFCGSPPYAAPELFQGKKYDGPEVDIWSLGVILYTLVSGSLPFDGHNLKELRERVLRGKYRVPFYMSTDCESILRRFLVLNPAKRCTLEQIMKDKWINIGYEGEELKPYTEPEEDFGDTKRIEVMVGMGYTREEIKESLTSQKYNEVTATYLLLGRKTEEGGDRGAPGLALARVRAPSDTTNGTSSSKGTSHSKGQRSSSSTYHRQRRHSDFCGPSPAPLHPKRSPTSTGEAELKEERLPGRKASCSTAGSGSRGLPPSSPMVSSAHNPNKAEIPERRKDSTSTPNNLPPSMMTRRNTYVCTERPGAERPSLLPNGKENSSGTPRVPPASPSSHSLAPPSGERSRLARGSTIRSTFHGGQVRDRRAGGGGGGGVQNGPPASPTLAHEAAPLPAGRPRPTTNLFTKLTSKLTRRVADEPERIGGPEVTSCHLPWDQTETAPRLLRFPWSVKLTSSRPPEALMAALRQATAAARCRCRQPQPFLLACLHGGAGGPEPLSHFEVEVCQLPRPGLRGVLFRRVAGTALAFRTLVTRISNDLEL
As to the kind of experiment: Binding affinity to human MARK4.

Experiment [6] deals with U-937. As to the kind of experiment: Inhibition of cell proliferation in human U937 cells assessed as reduction in viable cell count at 10 to 100 uM incubated for 48 hrs. The class given is functional, cell-based.
Experiment [7] concerns PC-3. Kind of experiment: Inhibition of PIP5K1alpha protein expression in human PC3 cells assessed as reduction in cyclin B1 expression at 50 uM incubated for 48 hrs by immunoblot analysis relative to control. The class given is functional, cell-based.
For experiment [8], the system named is PC-3. As to the kind of experiment: Inhibition of cell adhesion in human PC3 cells assessed as cell adhesion relative to control. The arrangement: scale not given: the % may be the effect or the level left. Format: functional.
For experiment [9], the system named is PC-3. Kind of experiment: Inhibition of PIP5K1alpha protein expression in human PC3 cells at 20 uM incubated for 48 hrs by immunoblot analysis. The class given is functional, cell-based.
Experiment [10] concerns LNCaP. Kind of experiment: Induction of apoptosis in human LNCAP cells assessed as formation of fragmented nucleus at 20 uM incubated for 48 hrs. Format: functional, cell-based.
The test system of experiment [11] is PC-3. Kind of experiment: Inhibition of PIP5K1alpha protein expression in human PC3 cells assessed as PIP5K1alpha/beta-actin ratio level at 20 uM incubated for 48 hrs by immunoblot analysis (reference value: 9.43). Format: functional.
In experiment [12] the test system is HCT-116. Kind of experiment: Inhibition of cell proliferation in human HCT116 cells assessed as reduction in viable cell count at 10 to 100 uM incubated for 48 hrs. Format: functional, cell-based.
Experiment [13] has as its target Serine/threonine-protein kinase MARK1 (Homo sapiens) (UniProt Q9P0L2). As to the kind of experiment: Binding affinity to human MARK1.
Experiment [14] concerns PC-3. As to the kind of experiment: Inhibition of PIP5K1alpha protein expression in human PC3 cells assessed as reduction in CDK1 expression at 50 uM incubated for 48 hrs by immunoblot analysis relative to control. The class given is functional, cell-based.

Chain of Serine/threonine-protein kinase MARK1 (Homo sapiens) (Q9P0L2 whole entry, looked up): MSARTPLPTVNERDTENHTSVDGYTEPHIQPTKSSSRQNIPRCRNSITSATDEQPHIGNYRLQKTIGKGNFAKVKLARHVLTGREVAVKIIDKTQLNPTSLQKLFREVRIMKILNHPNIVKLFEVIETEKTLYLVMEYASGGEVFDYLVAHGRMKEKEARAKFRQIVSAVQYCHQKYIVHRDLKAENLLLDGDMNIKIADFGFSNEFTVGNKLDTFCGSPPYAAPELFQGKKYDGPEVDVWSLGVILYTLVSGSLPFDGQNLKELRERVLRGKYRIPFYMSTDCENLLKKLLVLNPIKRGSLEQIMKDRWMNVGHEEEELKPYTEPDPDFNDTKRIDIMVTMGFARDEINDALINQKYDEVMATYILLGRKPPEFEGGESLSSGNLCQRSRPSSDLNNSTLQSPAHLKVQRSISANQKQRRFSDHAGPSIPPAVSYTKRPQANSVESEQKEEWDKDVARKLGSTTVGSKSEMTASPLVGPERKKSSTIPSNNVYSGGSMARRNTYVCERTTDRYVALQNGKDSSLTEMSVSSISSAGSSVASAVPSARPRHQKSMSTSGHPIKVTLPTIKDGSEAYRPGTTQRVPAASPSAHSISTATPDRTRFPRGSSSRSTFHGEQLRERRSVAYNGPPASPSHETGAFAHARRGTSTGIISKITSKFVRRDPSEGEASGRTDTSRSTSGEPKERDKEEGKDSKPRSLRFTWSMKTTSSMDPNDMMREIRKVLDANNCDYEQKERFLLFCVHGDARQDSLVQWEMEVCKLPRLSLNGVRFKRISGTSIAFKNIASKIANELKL

Consider `CN1CC(=O)N2[C@H](c3c[nH]c4ccc(Cl)cc34)c3cc4c(cc3C[C@H]2C1=O)OCO4`, for which the inhibition entry in experiment [1] is “Dose-dependent effect”. Also, the inhibition result in [2], in experiment [4], in experiment [6], in [7], in [9] and in experiment [12] was “Active” throughout. The inhibition entry in experiment [14] is “Active”. The Activity was 0.8% in experiment [3] and 38.82% in [8]. Also, the outcome in [5], in experiment [10] and in experiment [13] was Active. Also, the Ratio in experiment [11] is reported as 2.01.
